Reference: patent US7468392B1, “Anti-fatigue cyclohexenone compounds from antrodia camphorata” (Golden Biotechnology Corporation, priority 2007, dated 2008)
Entries after “also recorded” stand apart in the source; their conditions may differ.

Experiments:
Assay type in all cases: in vivo, human
healthy male volunteers [1] = test: Creatine phosphate kinase (CPK) activity in plasma before/after exhaustive exercise at 80% VO2max; settings: for creatine phosphate kinase levels: plasma, Mean, n = 15
Method: (§1) The present invention is based on supplementing cyclohexenone of Antrodia camphorata or placebo with no cyclohexenone of Antrodia camphorata to the subjects. The subjects were tested for the anti-fatigue function after supplementing cyclohexenone of Antrodia camphorata by measuring the amounts of fatigue indexes such as CPK, lactic acid, glucose, ammonia and free fatty acid before and after exhaustive exercise load at 80% VO2max.
(§2) Subjects were randomized to receive either cyclohexenone of Antrodia camphorata or placebo. Placebo contained substances such as cornstarch but no cyclohexenone of Antrodia camphorata. A double-blind, cross-over method was performed in this study where neither the evaluator nor the subject knew the content of the test substances. Based on rules of order balance, each subject have to receive the following tests: relaxing and receiving placebo (PR), exercising and receiving placebo (PE), relaxing and receiving cyclohexenone of Antrodia camphorata (DR), and exercising and receiving cyclohexenone of Antrodia camphorata (DE). Each test was carried out for one week, and took one week off before the next test until all 4 tests were performed in each subject. The exercise was performed on a treadmill with the load intensity at the measured 80% VO2max (7.61±1.87) until exhausted. Subjects received cyclohexenone of Antrodia camphorata or placebo after exercise in the amount of 0.2 g/kg body weight per day. […] Blood was collected in anticoagulant (such as EDTA) containing collection tubes, and was centrifuged at 3000 g. for 10 min to collect the plasma. The fatigue indexes such as CPK, lactic acid, glucose, ammonia and free fatty acid were analyzed accordingly. The physiological and biochemical changes before and after exercise with different supplements were compared and shown as values of mean and standard error (Mean±SEM). […] The details for the biochemical analysis and results are described below:
The measurement of creatine phosphate kinase was performed with an automated blood analyzer Johnson & Johnson DT-60II based on enzyme function and spectrophotometric theory. Creatine phosphate […] was added into a defined amount of plasma to react, followed by addition of 4-aminoantipyrine and 1,7-dihydroxynaphthalene. A […] product was formed through peroxidase function. The absorbance at 680 nm was measured to obtain the concentration of creatine kinase.

healthy male volunteers [2] = test: Blood glucose before meals, before/after exhaustive exercise at 80% VO2max; settings: for blood glucose levels: plasma, Mean, n = 15; for effect of supplementation on blood glucose metabolism before meals: exhaustive exercise at 80% VO2max, versus placebo
Method: as §1, §2
The measurement of blood glucose was performed with an automated blood analyzer Johnson & Johnson DT-600 II based on enzyme function and spectrophotometric method. Glucose oxidase was added into a defined amount of plasma for reaction, followed by addition of 4-aminoantipyrine and 1,7-dihydroxyphthalene. A red product was formed through function of peroxidase. The reactions are shown below:
The absorbance at 555 nm was measured to obtain the concentration of blood glucose.

healthy male volunteers [3] = test: Ammonia levels in blood before/after exhaustive exercise at 80% VO2max; settings: for blood ammonia levels: plasma, Mean, n = 15
Method: as §1, §2
The measurement of blood ammonia was performed with an automated blood analyzer Johnson & Johnson DT-60II based on the spectrophotometric method. Bromphenol blue was added into a defined amount of plasma to generate blue products. The reaction is shown below:
The absorbance at 605 nm was measured to obtain the concentration of blood ammonia.

[4] = Relax (DR), Post-exercise 0.5 h
[5] = Relax (DR), Post-exercise 120 h
[6] = Relax (DR), Post-exercise 168 h
[7] = exercise (DE), Post-exercise 0 h
[8] = exercise (DE), Post-exercise 0.5 h
[9] = exercise (DE), Post-exercise 1 h
[10] = exercise (DE), Post-exercise 2 h
[11] = exercise (DE), Post-exercise 24 h
[12] = exercise (DE), Post-exercise 48 h
[13] = exercise (DE), Post-exercise 72 h
[14] = exercise (DE), Post-exercise 120 h
[15] = exercise (DE), Post-exercise 168 h
[16] = exercise (DE), Prior to exercise

## COC1=C(OC)C(O)C(C/C=C(\C)CC/C=C(\C)CCC=C(C)C)C(C)C1=O (centres unmarked) [cyclohexenone, 4-hydroxy-2,3-dimethoxy-6-methyl-5(3,7,11-trimethyl-dodeca-2,6,10-trienyl)-cyclohex-2-enone]
Healthy male volunteers [1]; Relax (DR), Post-exercise 0 h
  creatine phosphate kinase levels: 150.20 U/L
Healthy male volunteers [1]; [4]
  creatine phosphate kinase levels: 166.53 U/L
Healthy male volunteers [1]; Relax (DR), Post-exercise 1 h
  creatine phosphate kinase levels: 167.40 U/L
Healthy male volunteers [1]; Relax (DR), Post-exercise 2 h
  creatine phosphate kinase levels: 146.33 U/L
Healthy male volunteers [1]; Relax (DR), Post-exercise 24 h
  creatine phosphate kinase levels: 158.47 U/L
Healthy male volunteers [1]; Relax (DR), Post-exercise 48 h
  creatine phosphate kinase levels: 133.87 U/L
Healthy male volunteers [1]; Relax (DR), Post-exercise 72 h
  creatine phosphate kinase levels: 165.73 U/L
Healthy male volunteers [1]; [5]
  creatine phosphate kinase levels: 243.00 U/L
Healthy male volunteers [1]; [6]
  creatine phosphate kinase levels: 183.27 U/L
Healthy male volunteers [1]; Relax (DR), Prior to exercise
  creatine phosphate kinase levels: 167.27 U/L
Healthy male volunteers [1]; [7]
  creatine phosphate kinase levels: 259.57 U/L
Healthy male volunteers [1]; [8]
  creatine phosphate kinase levels: 221.86 U/L
Healthy male volunteers [1]; [9]
  creatine phosphate kinase levels: 232.93 U/L
Healthy male volunteers [1]; [10]
  creatine phosphate kinase levels: 208.07 U/L
Healthy male volunteers [1]; [11]
  creatine phosphate kinase levels: 332.50 U/L
Healthy male volunteers [1]; [12]
  creatine phosphate kinase levels: 244.00 U/L
Healthy male volunteers [1]; [13]
  creatine phosphate kinase levels: 193.86 U/L
Healthy male volunteers [1]; [14]
  creatine phosphate kinase levels: 193.86 U/L
Healthy male volunteers [1]; [15]
  creatine phosphate kinase levels: 204.83 U/L
Healthy male volunteers [1]; [16]
  creatine phosphate kinase levels: 226.64 U/L
Healthy male volunteers [1]; exhaustive exercise at 80% VO2max, 0.2 g/kg body weight per day, versus placebo, listed as cyclohexenone from Antrodia camphorata
  effect of supplementation after exercise on creatine phosphate kinase levels: effectively decreases the muscular injury marker of creatine phosphate kinase levels; also recorded: significant effect (p<0.05) in metabolism of creatine phosphate kinase
Healthy male volunteers [2]; Relax (DR), Post-exercise 0 h
  blood glucose levels: 91.93 mg/dL
Healthy male volunteers [2]; [4]
  blood glucose levels: 93.33 mg/dL
Healthy male volunteers [2]; Relax (DR), Post-exercise 1 h
  blood glucose levels: 95.53 mg/dL
Healthy male volunteers [2]; Relax (DR), Post-exercise 2 h
  blood glucose levels: 103.20 mg/dL
Healthy male volunteers [2]; Relax (DR), Post-exercise 24 h
  blood glucose levels: 90.00 mg/dL
Healthy male volunteers [2]; Relax (DR), Post-exercise 48 h
  blood glucose levels: 90.40 mg/dL
Healthy male volunteers [2]; Relax (DR), Post-exercise 72 h
  blood glucose levels: 93.40 mg/dL
Healthy male volunteers [2]; [5]
  blood glucose levels: 94.00 mg/dL
Healthy male volunteers [2]; [6]
  blood glucose levels: 92.20 mg/dL
Healthy male volunteers [2]; Relax (DR), Prior to exercise
  blood glucose levels: 91.73 mg/dL
Healthy male volunteers [2]; [7]
  blood glucose levels: 103.43 mg/dL
Healthy male volunteers [2]; [8]
  blood glucose levels: 88.71 mg/dL
Healthy male volunteers [2]; [9]
  blood glucose levels: 93.86 mg/dL
Healthy male volunteers [2]; [10]
  blood glucose levels: 101.07 mg/dL
Healthy male volunteers [2]; [11]
  blood glucose levels: 94.43 mg/dL
Healthy male volunteers [2]; [12]
  blood glucose levels: 89.21 mg/dL
Healthy male volunteers [2]; [13]
  blood glucose levels: 93.00 mg/dL
Healthy male volunteers [2]; [14]
  blood glucose levels: 93.29 mg/dL
Healthy male volunteers [2]; [15]
  blood glucose levels: 92.93 mg/dL
Healthy male volunteers [2]; [16]
  blood glucose levels: 89.21 mg/dL
Healthy male volunteers [2]; listed as cyclohexenone from Antrodia camphorata
  effect of supplementation on blood glucose metabolism before meals: no effect
Healthy male volunteers [2]; listed as cyclohexenone of Antrodia camphorata
  effect of supplementation on blood glucose metabolism before meals: no significant difference
Healthy male volunteers [3]; 24 h post exercise
  ammonia levels in DE group versus those before exercise: significantly lower
Healthy male volunteers [3]; Relax (DR), Post-exercise 0 h
  blood ammonia levels: 55.60 µg/dL
Healthy male volunteers [3]; [4]
  blood ammonia levels: 52.53 µg/dL
Healthy male volunteers [3]; Relax (DR), Post-exercise 1 h
  blood ammonia levels: 57.47 µg/dL
Healthy male volunteers [3]; Relax (DR), Post-exercise 2 h
  blood ammonia levels: 54.07 µg/dL
Healthy male volunteers [3]; Relax (DR), Post-exercise 24 h
  blood ammonia levels: 30.33 µg/dL
Healthy male volunteers [3]; Relax (DR), Post-exercise 48 h
  blood ammonia levels: 26.86 µg/dL
Healthy male volunteers [3]; Relax (DR), Post-exercise 72 h
  blood ammonia levels: 25.20 µg/dL
Healthy male volunteers [3]; [5]
  blood ammonia levels: 27.80 µg/dL
Healthy male volunteers [3]; [6]
  blood ammonia levels: 28.57 µg/dL
Healthy male volunteers [3]; Relax (DR), Prior to exercise
  blood ammonia levels: 39.20 µg/dL
Healthy male volunteers [3]; [7]
  blood ammonia levels: 118.07 µg/dL
Healthy male volunteers [3]; [8]
  blood ammonia levels: 57.64 µg/dL
